One assay concerns brain. As to the kind of experiment: Matured TTM-001 and TTM-002 variants, NGS enrichment in mouse brain. Conditions: relative to AAV9 control. The format is in vivo, mice.
Assay [1] has as its system brains, heart, liver, muscle, and DRG of the NHPs. The experiment in a line: Maturation of TTM-001 and TTM-002 capsids, NGS enrichment in NHP tissues. The format is in vivo. The following applies: relative to AAV9 control. The method in brief: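 Variants carry mutations within and flanking the loop IV peptide insert: positions 450–466 were triplet-randomized, while positions 449–466 received low-frequency point mutations. The combined pool went into two NHPs, and each peptide was scored by NGS enrichment ratio against AAV9.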

Where [2] appears, read: NGS fold-enrichment, mouse brain.
Where [3] appears, read: NGS fold-enrichment of RNA, NHP brain.
Where [4] appears, read: NGS fold-enrichment, NHP liver DNA.
The mark [5] stands for this setting: NGS fold-enrichment, NHP liver RNA.
Where [6] appears, read: NGS fold-enrichment, NHP muscle.
Where [7] appears, read: NGS fold-enrichment of matured AAV capsid variants, NHP brain, RNA.
[8] abbreviates: NGS fold-enrichment, brain of mice.
The mark [9] stands for this setting: NGS fold-enrichment, DRG of NHPs.
Setting [10] is: NGS fold-enrichment, RNA, brain of NHPs.
[11] abbreviates: NGS fold-enrichment, heart of NHPs.
[12] abbreviates: NGS fold-enrichment, liver DNA of NHPs.
Where [13] appears, read: NGS fold-enrichment, liver RNA of NHPs.
Setting [14] is: NGS fold-enrichment, muscle of NHPs.

The values below come from patent US20260250318A1, “COMPOSITIONS AND METHODS FOR CROSSING THE BLOOD BRAIN BARRIER” (VOYAGER THERAPEUTICS, INC., priority 2022, published 2026).

Regarding KTVNGHDSPHKSGHTQQT, the “Fold Enrichment relative to AAV9, Brain (Mouse)” value in the assay with brain (setting [2]) worked out at 6.160 fold. For the same sequence, in assay [1] (setting [3]), the “Fold Enrichment relative to AAV9, Brain (NHP)” value is given as 82.246 fold. Also, the “Fold Enrichment relative to AAV9, DRG (NHP)” value in assay [1] (NGS fold-enrichment, NHP DRG) was 0.000 fold. Further, the “Fold Enrichment relative to AAV9, Heart (NHP)” value in assay [1] (NGS fold-enrichment, NHP heart) came to 0.378 fold. Also, the “Fold Enrichment relative to AAV9, Liver DNA (NHP)” value in assay [1] (setting [4]) is given as 0.123 fold. Moreover, the “Fold Enrichment relative to AAV9, Liver RNA (NHP)” value in assay [1] (setting [5]) came out at 0.000 fold. Moreover, the “Fold Enrichment relative to AAV9, Muscle (NHP)” value in assay [1] (setting [6]) was found to be 1.142 fold.

Take KTINGSGSPHSKAPNLQI: in the assay on brain (mouse brain), the “Fold Enrichment relative to AAV9, Brain (Mouse)” value is 55.714 fold. Besides, in assay [1] (setting [7]), the “Fold Enrichment relative to AAV9, Brain (NHP)” value is listed as 58.022 fold. Besides, the “Fold Enrichment relative to AAV9, DRG (NHP)” value in assay [1] (NHP DRG) is given as 0.000 fold. For the same sequence, the “Fold Enrichment relative to AAV9, Heart (NHP)” value in assay [1] (NHP heart) came to 0.044 fold. For the same sequence, in assay [1] (NHP liver, DNA), the “Fold Enrichment relative to AAV9, Liver DNA (NHP)” value is given as 0.243 fold. The “Fold Enrichment relative to AAV9, Liver RNA (NHP)” value in assay [1] (NHP liver, RNA) came to 1.548 fold. Further, the “Fold Enrichment relative to AAV9, Muscle (NHP)” value in assay [1] (NHP muscle) was 0.000 fold.

As to KTINGSGSPHSKAQRTMT, the “Fold Enrichment relative to AAV9, Brain (Mouse)” value with brain (setting [8]) and in the assay on brain (setting [2]) was 100.248 fold throughout. The “Fold Enrichment relative to AAV9, Brain (NHP)” value in assay [1] (setting [3]) and in assay [1] (setting [10]) was 80.388 fold throughout. In addition, the “Fold Enrichment relative to AAV9, DRG (NHP)” value stood at 0.000 fold in assay [1] (setting [9]) and 0.000 fold in assay [1] (NGS fold-enrichment, NHP DRG). For the same sequence, the “Fold Enrichment relative to AAV9, Heart (NHP)” value in assay [1] (NGS fold-enrichment, NHP heart) is on record as 0.022 fold; in assay [1] (setting [11]), 0.022 fold. For the same sequence, the “Fold Enrichment relative to AAV9, Liver DNA (NHP)” value in assay [1] (setting [4]) and in assay [1] (setting [12]) was 1.025 fold throughout. The “Fold Enrichment relative to AAV9, Liver RNA (NHP)” value in assay [1] (setting [5]) and in assay [1] (setting [13]) was 1.812 fold throughout. Moreover, the “Fold Enrichment relative to AAV9, Muscle (NHP)” value in assay [1] (setting [6]) and in assay [1] (setting [14]) was 0.170 fold in each case.

Consider KTINGSGSPHSKARGEQT, for which the “Fold Enrichment relative to AAV9, Brain (Mouse)” value in the assay with brain (mouse brain) is on record as 128.098 fold. In addition, in assay [1] (setting [7]), the “Fold Enrichment relative to AAV9, Brain (NHP)” value is given as 54.207 fold. In assay [1] (NHP DRG), the “Fold Enrichment relative to AAV9, DRG (NHP)” value was determined as 0.025 fold. Moreover, the “Fold Enrichment relative to AAV9, Heart (NHP)” value in assay [1] (NHP heart) turned out to be 0.006 fold. In addition, in assay [1] (NHP liver, DNA), the “Fold Enrichment relative to AAV9, Liver DNA (NHP)” value was 0.327 fold. For the same sequence, the “Fold Enrichment relative to AAV9, Liver RNA (NHP)” value in assay [1] (NHP liver, RNA) is given as 0.309 fold. In addition, the “Fold Enrichment relative to AAV9, Muscle (NHP)” value in assay [1] (NHP muscle) stood at 0.005 fold.

As to KTERSSGSPHSKAQNQQT, the “Fold Enrichment relative to AAV9, Brain (Mouse)” value with brain (setting [8]) is 125.538 fold. Further, the “Fold Enrichment relative to AAV9, DRG (NHP)” value in assay [1] (setting [9]) worked out at 0.000 fold. Moreover, the “Fold Enrichment relative to AAV9, Brain (NHP)” value in assay [1] (setting [10]) is on record as 74.853 fold. In assay [1] (setting [11]), the “Fold Enrichment relative to AAV9, Heart (NHP)” value is recorded as 0.071 fold. Moreover, in assay [1] (setting [12]), the “Fold Enrichment relative to AAV9, Liver DNA (NHP)” value is given as 0.056 fold. Also, the “Fold Enrichment relative to AAV9, Liver RNA (NHP)” value in assay [1] (setting [13]) is reported as 1.036 fold. Also, the “Fold Enrichment relative to AAV9, Muscle (NHP)” value in assay [1] (setting [14]) stood at 0.000 fold.

Consider KTELHSGSPHSKAQNQQT, for which the “Fold Enrichment relative to AAV9, Brain (Mouse)” value in the assay with brain (setting [8]) is on record as 53.124 fold. For the same sequence, the “Fold Enrichment relative to AAV9, DRG (NHP)” value in assay [1] (setting [9]) came out at 0.000 fold. The “Fold Enrichment relative to AAV9, Brain (NHP)” value in assay [1] (setting [10]) worked out at 74.620 fold. In addition, in assay [1] (setting [11]), the “Fold Enrichment relative to AAV9, Heart (NHP)” value is listed as 0.000 fold. Besides, in assay [1] (setting [12]), the “Fold Enrichment relative to AAV9, Liver DNA (NHP)” value came out at 0.089 fold. The “Fold Enrichment relative to AAV9, Liver RNA (NHP)” value in assay [1] (setting [13]) came out at 0.021 fold. Further, the “Fold Enrichment relative to AAV9, Muscle (NHP)” value in assay [1] (setting [14]) is on record as 0.000 fold.

Consider KTINGSGSPHSKAQPPAT, for which the “Fold Enrichment relative to AAV9, Brain (Mouse)” value with brain (setting [8]) is given as 117.453 fold. In addition, the “Fold Enrichment relative to AAV9, DRG (NHP)” value in assay [1] (setting [9]) amounted to 0.048 fold. Besides, the “Fold Enrichment relative to AAV9, Brain (NHP)” value in assay [1] (setting [10]) amounted to 63.510 fold. In addition, in assay [1] (setting [11]), the “Fold Enrichment relative to AAV9, Heart (NHP)” value is listed as 0.030 fold. For the same sequence, in assay [1] (setting [12]), the “Fold Enrichment relative to AAV9, Liver DNA (NHP)” value was found to be 0.302 fold. Besides, the “Fold Enrichment relative to AAV9, Liver RNA (NHP)” value in assay [1] (setting [13]) is listed as 0.126 fold. For the same sequence, the “Fold Enrichment relative to AAV9, Muscle (NHP)” value in assay [1] (setting [14]) was found to be 0.031 fold.

Turning to KSIYGHESPHKSGQNQQS, in the assay with brain (setting [2]), the “Fold Enrichment relative to AAV9, Brain (Mouse)” value is listed as 8.064 fold. In addition, the “Fold Enrichment relative to AAV9, Brain (NHP)” value in assay [1] (setting [3]) is recorded as 90.947 fold. In addition, the “Fold Enrichment relative to AAV9, DRG (NHP)” value in assay [1] (NGS fold-enrichment, NHP DRG) was 0.817 fold. Also, in assay [1] (NGS fold-enrichment, NHP heart), the “Fold Enrichment relative to AAV9, Heart (NHP)” value came to 0.310 fold. Also, in assay [1] (setting [4]), the “Fold Enrichment relative to AAV9, Liver DNA (NHP)” value was determined as 0.243 fold. Also, the “Fold Enrichment relative to AAV9, Liver RNA (NHP)” value in assay [1] (setting [5]) was determined as 0.000 fold. The “Fold Enrichment relative to AAV9, Muscle (NHP)” value in assay [1] (setting [6]) was determined as 0.000 fold.

On to KTIIGSGSPHSKAQDRQT, for which the “Fold Enrichment relative to AAV9, Brain (Mouse)” value with brain (mouse brain) is reported as 53.981 fold. Also, the “Fold Enrichment relative to AAV9, Brain (NHP)” value in assay [1] (setting [7]) is 58.258 fold. In assay [1] (NHP DRG), the “Fold Enrichment relative to AAV9, DRG (NHP)” value turned out to be 1.393 fold. For the same sequence, the “Fold Enrichment relative to AAV9, Heart (NHP)” value in assay [1] (NHP heart) was found to be 0.230 fold. Further, the “Fold Enrichment relative to AAV9, Liver DNA (NHP)” value in assay [1] (NHP liver, DNA) was 0.045 fold. Further, the “Fold Enrichment relative to AAV9, Liver RNA (NHP)” value in assay [1] (NHP liver, RNA) is on record as 0.000 fold. The “Fold Enrichment relative to AAV9, Muscle (NHP)” value in assay [1] (NHP muscle) is 0.219 fold.
